Values joined by “and” are separate entries in the source; they are usually repeats but may differ in a detail not shown here. Identical values can stand only once. Like-named read-outs stand apart in the source and are kept apart here. Ends that are not written are not given here.
What was measured:
[1] = system: Fusarium graminearum; format: cell-based; details: for inhibition of growth of F. graminearum, more than NaD1: 0.825 ppm; for IC50: read-out: IC50 against Fusarium graminearum (Fgr)
[2] = system: Fusarium verticilloides; format: cell-based; details: 3.25 ppm
[3] = system: Colletotrichum graminicola; format: cell-based; details: 13 ppm
[4] = system: Aspergillus niger; format: cell-based
[5] = system: Cryptococcus neoformans (C1065); format: cell-based; details: 13 ppm
[6] = system: C. neoformans (C2067); format: cell-based, Cryptococcus neoformans; details: 6.5 ppm
[7] = system: C. gattii; format: cell-based, Cryptococcus gattii
[8] = system: Fusarium graminearum; format: cell-based
[9] = system: Colletotrichum graminicola; format: cell-based
[10] = system: Colletotrichum graminicola; assay: Transgenic corn leaf sheath bioassay, lesion area, C. graminicola; details: in vivo
[11] = system: Asian soybean rust (Phakopsora pachirhizi); format: cell-based; details: 10 ppm
[12] = system: Fusarium graminearum; details: in vivo

For “HXP4: NaD2 Loop 1B (HRFKGP) in NaD1 backbone, SEQ ID NO:39 (RECKTESHRFKGPCITKPPCRKACISEKFTDGHCSKILRRCLCTKPC; ends and bridges not checked; cysteine pairing not given here)”, the “inhibition of growth of F. graminearum, more than NaD1” value [1] was 41.7%, the “inhibition of growth of F. verticilloides, more than NaD1” value [2] was 40.9% and the “inhibition of growth of C. graminicola, more than NaD1” value [3] was 61.3%. For the same molecule, the “activity expressed as percent of NaD1, A. niger” value ([4]; 13 ppm) was “greater than 112%”, the “inhibition of growth of A. niger, more than NaD1” value (from here on “inhibition of growth of A. niger”) ([4]; 13 ppm) was 20.6% and the “inhibition of growth of A. niger” value ([4]; 26 ppm) was “at least 10%”. The “inhibition of growth of A. niger” value ([4]; 53 ppm) was “at least 10%”, the “activity as percent of the activity of NaD1, C. neoformans (C1065)” value [5] was “more than 596%” and the “inhibition of growth of Cryptococcus neoformans (C1065)” value [5] was “completely inhibited”. The “inhibition of growth of C. neoformans (C2067)” value [6] was “more than 80%”, the “inhibition of growth of C. gatti, more than NaD1” value ([7]; 6.5 ppm) was 38% and the “inhibition of growth of C. gatti, more than NaD1” value ([7]; 13 ppm) was 10%. For the same molecule, the “synergistic effect with protease inhibitors against Fusarium graminearum” value [8] was “greater synergistic effect with protease inhibitors than NaD1”, the “synergy with protease inhibitors against Colletotrichum graminicola” value [9] was “synergistic with protease inhibitors” and the “Percent inhibition relative of empty vector control (reduction in lesion area), Cgr” value [10] was 26%. The “inhibition of appresorium formation, more than NaD1” value ([11]; 24 hours) was 65%, the “inhibition of germination of Asian soybean rust, more than NaD1” value ([11]; 24 hours) was 62% and the “inhibition of formation of post-appresorium structures, more than NaD1” value ([11]; 48 hours) was 59%.

In the case of “HXP34: Zea2 Loop 1B (QHHSFP) in NaD1 backbone, SEQ ID NO:40 (RECKTESQHHSFPCITKPPCRKACISEKFTDGHCSKILRRCLCTKPC; ends and bridges not checked; cysteine pairing not given here)”, the “inhibition of growth of F. graminearum, more than NaD1” value [1] is reported as 14.6%, the “inhibition of growth of F. verticilloides, more than NaD1” value [2] is reported as 29.4% and the “inhibition of growth of C. graminicola, more than NaD1” value [3] is reported as 21.8%.

“HXP35: PSD1 Loop 1B (DTYRGV) in NaD1 backbone, SEQ ID NO:41 (RECKTESDTYRGVCITKPPCRKACISEKFTDGHCSKILRRCLCTKPC; ends and bridges not checked; cysteine pairing not given here)” was tested, and the “inhibition of growth of F. graminearum, more than NaD1” value [1] was 34.5%, the “inhibition of growth of F. verticilloides, more than NaD1” value [2] was 5.1% and the “inhibition of growth of C. graminicola, more than NaD1” value [3] was 83.2%.

Molecule “HXP107: NaD2 Loop 1B in TPP3 backbone, SEQ ID NO:85 (QQICKAPSHRFKGPCFMDSSCRKYCIKEKFTGGHCSKLQRKCLCTKPC; Synthetic construct TPP3 backbone with NaD2 Loop 1B)” has an IC50 [1] of 500 nM.

Work on “TPP3: Class II solanaceous defensin (Solanum lycopersicum), SEQ ID NO:5, parent protein of HXP107 (QQICKAPSQTFPGLCFMDSSCRKYCIKEKFTGGHCSKLQRKCLCTKPC; Synthetic construct Amino acid sequence of portion of TPP3 (Solanum lycopersicum) containing Loop 1B) [reference compound]” yielded an IC50 [1] of 200 nM.

B1: NaPin1A: Nicotiana alata type I proteinase inhibitor (protein)
chain: QSGCPGVTKERWPELLGTPAKFAMQIIQKENPKLTNVQTILNGRPVTEDLRCNRVRLFVNVLDFVVQTPQVG
modifications: Synthetic construct Amino acid sequence of NaPin1A
In the case of B1, the “Ee, expected effect from the additive response (Limpel's formula)” value [9] is reported as 11.8 percent inhibition and the “Io, percent inhibition observed” value [9] is reported as 69.3 percent inhibition.

B2: CI-1B: barley type-I inhibitor, recombinant (protein)
chain: MRSMEGSVPKYPEPTEGSIGASGAKRSWPEVVGMSAEKAKEIILRDKPDAQIEVIPVDAMVPLDFNPNRIFILVAVARTPTVG
modifications: Synthetic construct Amino acid sequence of CI-1B
In the case of B2, the “Ee, expected effect from the additive response (Limpel's formula)” value [8] is reported as 12.1 percent inhibition and 17.1 percent inhibition.

B3: HXP4 + HvCPI6: barley cystatin HvCPI6 and modified defensin HXP4 co-expressed from one construct in corn, SEQ ID NO:83 (protein)
chain: MANKHLSLSLFLVLLGLSASLASGATSALGRRGVLLGGWSPVKDVNDPHVQELGGWAVAQHASLAKDGLLFRRVTRGEQQVVSGMNYRLFVVAADGSGKRVTYLAQIYEHWSRTRKLTSFKPAAGGEEKKNRECKTESNTFPGICITKPPCRKACISEKFTDGHCSKILRRCLCTKPCVFDEKMTKTGAEILAEEAKTLAAALLEEEIMDN
modifications: Synthetic construct Amino acid sequence of HvCPI6-L-HXP4-CTPP
For B3, the “Percent inhibition relative of empty vector control (reduction in lesion area), Fgr” value [12] was 45%.
